The values that follow are results of earlier work, collected in article PMC3880798 (Clinical cancer research : an official journal of the …, 2013).

Structures are written as SMILES. Read-outs that look alike come from different tables or passages of the source.

One series relates to GIST. The following applies: cited from earlier work.
For series [1] the following is noted: cited from earlier work.
The test system of a further series is c-Kit. The following applies: intact cellular systems; cited from earlier work.

Take `CCN(CC)CCNC(=O)c1c(C)[nH]c(/C=C2\C(=O)Nc3ccc(F)cc32)c1C` [sunitinib]: in the series with GIST (standard second-line therapy), the “Median time to progression” value is 27 weeks. Further, the “Incidence of PPE” value in series [1] is recorded as “up to 20%”.

With `Cc1ccc(Nc2nccc(N(C)c3ccc4c(C)n(C)nc4c3)n2)cc1S(N)(=O)=O` [pazopanib], the Patients with proteinuria in series [1] was 51%.

As for `Cc1cn(-c2cc(NC(=O)c3ccc(C)c(Nc4nccc(-c5cccnc5)n4)c3)cc(C(F)(F)F)c2)cn1` [nilotinib], in the series on GIST, the Disease stabilization is on record as 38% and the “Median duration of disease stabilization” value is 12 weeks.

As to `Cc1ccc(NC(=O)c2ccc(CN3CCN(C)CC3)cc2)cc1Nc1nccc(-c2cccnc2)n1` [imatinib], the “Median time to progression” value with GIST is “approximately 2 years”. The “Median duration of response” value with GIST (first-line) is “about 2 years”. Further, in the series with c-Kit, the “Potency for wild-type versus mutant c-Kit” value is given as “significantly lower potency for wild-type c-Kit relative to mutant c-Kit”.
